Data taken from patent publication US20070049569A1, “Methods of using fatty-acid esters of estrogens and thermogenic compounds for reducing the body weight of a mammal and compositions containing the same” (Oleoyl-Estrone Developments SL, priority 2004, published 2007).

Legend:
[1] = Energy balance (carcass energy content, energy intake, energy expenditure) of treated male Wistar rats; assay type: in vivo; conditions: 10-day treatment; for changes in energy expenditure versus control group (in words): estimated as energy intake minus accrual; for loss of body energy: oleoyl-estrone 10 micromol/kg daily gavage, CL-316243 1 mg/kg daily s.c. infusion; for decrease in food consumption: versus control group
Excerpt: (§1) Forty-five day-old male Wistar rats were used. The rats were kept in collective cages in a light cycle, temperature, and humidity-controlled environment. They were fed tap water and a self-selected cafeteria diet (containing an excess of tasty, energy-dense foods, as well as standard chow) for 45 additional days. Then they were subjected to a 5-day diet adaptation period, in which they had rat chow as the sole food available. At this point, the rats weighed 350-370 g and had significant amounts of body fat. Maintaining the availability of rat chow (daily consumption by the group was recorded) and tap water, body weight was recorded daily. The animals were given a daily gavage of either 0.2 mL of sunflower oil or the same vehicle containing oleoyl-estrone to a daily dose of 10 micromol/kg of body weight.
(§2) This standard feeding and drug administration schedule was complemented by treating one half of the animals receiving only oil and one half of the animals receiving oil and oleoyl-estrone with a daily dose of 1 mg/kg of CL-316243, a beta-3 adrenergic agonist. This drug was continuously administered by means of subcutaneous infusion using Alzet osmotic minipumps (model 2002; 0.5 microliter/h) loaded with drug dissolved in saline. The minipumps were inserted subcutaneously in the dorsal lumbar area of the experimental animals by means of a short cut in the skin. The pumps were tested before their implantation, and the fluid remaining in the minipumps was later measured in order to check the effectiveness of the infusion.
(§3) The treatment was maintained up to 10 days, when the animals were killed by decapitation, and their blood and carcass were used for analyses.
(§4) Samples of the rat paste were dried and used for the estimation of their caloric content using a bomb calorimeter. The initial values for lipid content were calculated from the corresponding in vivo body weights at the beginning of the experiment and applying to all the animals the mean percentage of lipid content found in the control (vehicle only) group at the end of the experiment. This same procedure was used to determine the overall energy content of the carcasses by using the experimentally found energy content of the rats in the control group. Likewise, the energy content of the pellet diet was also measured and used to estimate the energy intake of the animals.
Energy expenditure (Ee) was estimated as the difference between energy intake (Ei) and accrual (Ea), since: Ei=Ee±Ea.

[2] = Body weight and lipid changes of overweight male Wistar rats in the 10-day period of treatment; assay type: in vivo; conditions: 10-day treatment; oleoyl-estrone 10 micromol/kg daily gavage; CL-316243 1 mg/kg daily s.c. infusion
Excerpt: as §1, §2, §3
The rat corpses, partially exsanguinated were dissected. The stomach and intestines were cleaned of their contents. The remaining carcass was sealed into polyethylene bags, autoclaved and blended to a fine paste. This paste was analyzed for lipid content by extraction using trichloromethane/methanol and corrected by its water content. Lipid content in the paste was referred to whole in vivo body weight for comparison.
as §4

Compound	contribution of internal reserves to fuel the energy expenditure [1]	changes in energy expenditure versus control group (in words) [1]	loss of body energy [1]	increase in energy expenditure ([1]; rats treated with the beta-3 agonist, alone or with oleoyl-estrone)	decrease in food consumption [1]	loss of body weight [2]	loss of lipid (lipid stores) [2]
C[C@H](Cc1ccc2c(c1)OC(C(=O)[O-])(C(=O)[O-])O2)NC[C@H](O)c1cccc(Cl)c1.[Na+].[Na+] [beta-3 agonist]	28%	higher than that of the control group by more than one-third	821 kJ	136%	did not show a significant loss of appetite	less than 3%	42%
CCCCCCCC/C=C\CCCCCCCC(=O)Oc1ccc2c(c1)CC[C@@H]1[C@@H]2CC[C@]2(C)C(=O)CC[C@@H]12 [oleoyl-estrone, [3(Z)]-3-[(1-oxo-9-octadecenyl)oxy]-estra-1,3,5(10)-trien-17-one]	19%	slight decrease	354 kJ		32%	about 8%	13%
